Measured values taken from patent publication US9421209B2, “Kinase modulators” (Rhizen Pharmaceuticals SA, priority 2009, dated 2016).
Like-named read-outs stand apart in the source and are kept apart here.

Legend:
P110 δ/Pi3K δ = P110 δ/Pi3K δ (Homo sapiens, UniProt O00329); assay: Fluorescent (HTRF) determination of PI3K enzyme activity, δ isoform; assay type: biochemical; design: inhibition: dose or concentration left out as unconfirmed
Source text: Assay 1: Fluorescent determination of PI3Kinase Kinase enzyme activity
Phosphoinositide 3 kinases (PI3K) belong to a class of lipid kinases that play a critical role in the regulation of several key cellular processes. The PI3K are capable of phosphorylating the 3-hydroxy position of phosphoinositols thereby generating second messengers involved in downstream signalling events. The homogenous time resolved fluorescence (HTRF) assay allows detection of 3,4,5-triphosphate (PIP3) formed as a result of phosphorylation of phosphotidylinositol 4,5-biphosphate (PIP2) by PI3K isoforms such as α, β, γ or δ.
PI3K isoform activity for α, β, γ or δ was determined using a PI3K human HTRF™ Assay Kit (Millipore, Billerica, Mass.) with modifications. All incubations were carried out at room temperature. […] After the initial incubation, 5 μl/well of 400 μM ATP was added and incubated for an additional 30 minutes. Reaction was terminated by adding 5 μl/well stop solution (Millipore, Billerica, Mass.). Five microliters of detection mix (Millipore, Billerica, Mass.) were then added to each well and was incubated for 6-18 h in the dark. […] Data were analyzed using Graphpad Prism (Graphpad software; San Diego Calif.) for IC50 determination. Percent inhibition was calculated based on the values for the blank and enzyme controls.

[1] = read-out: P110 δ/ Pi3K δ IC 50 nM

P110 δ/Pi3K δ, sequence (O00329 whole entry, canonical isoform): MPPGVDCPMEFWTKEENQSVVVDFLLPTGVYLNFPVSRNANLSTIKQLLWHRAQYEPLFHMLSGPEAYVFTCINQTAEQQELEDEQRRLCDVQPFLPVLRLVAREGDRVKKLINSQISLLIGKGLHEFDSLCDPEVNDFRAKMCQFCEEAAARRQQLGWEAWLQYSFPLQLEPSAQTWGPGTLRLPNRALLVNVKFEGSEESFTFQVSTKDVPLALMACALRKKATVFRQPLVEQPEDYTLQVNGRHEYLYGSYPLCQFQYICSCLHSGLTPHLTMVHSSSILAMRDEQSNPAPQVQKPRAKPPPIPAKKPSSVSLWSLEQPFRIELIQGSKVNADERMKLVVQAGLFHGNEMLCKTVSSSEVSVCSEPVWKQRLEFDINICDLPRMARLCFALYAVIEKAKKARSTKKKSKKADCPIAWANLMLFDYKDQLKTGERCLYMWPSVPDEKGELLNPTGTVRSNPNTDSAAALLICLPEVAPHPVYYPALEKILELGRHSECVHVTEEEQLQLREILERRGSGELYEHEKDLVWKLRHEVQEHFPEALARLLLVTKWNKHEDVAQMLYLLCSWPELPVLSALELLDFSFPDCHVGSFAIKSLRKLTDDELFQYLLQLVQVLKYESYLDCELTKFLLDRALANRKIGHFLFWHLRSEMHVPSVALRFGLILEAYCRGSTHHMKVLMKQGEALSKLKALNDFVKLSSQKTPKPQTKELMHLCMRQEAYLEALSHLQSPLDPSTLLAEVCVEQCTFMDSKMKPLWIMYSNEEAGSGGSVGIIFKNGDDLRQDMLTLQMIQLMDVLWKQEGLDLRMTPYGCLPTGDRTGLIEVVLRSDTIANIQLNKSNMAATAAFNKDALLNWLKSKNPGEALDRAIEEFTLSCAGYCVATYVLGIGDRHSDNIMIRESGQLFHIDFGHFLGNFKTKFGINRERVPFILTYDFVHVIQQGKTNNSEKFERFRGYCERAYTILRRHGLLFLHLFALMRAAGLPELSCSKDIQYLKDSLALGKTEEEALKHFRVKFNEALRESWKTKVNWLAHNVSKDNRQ
P110 δ/Pi3K δ, sequence (P27986 whole entry partner, canonical isoform): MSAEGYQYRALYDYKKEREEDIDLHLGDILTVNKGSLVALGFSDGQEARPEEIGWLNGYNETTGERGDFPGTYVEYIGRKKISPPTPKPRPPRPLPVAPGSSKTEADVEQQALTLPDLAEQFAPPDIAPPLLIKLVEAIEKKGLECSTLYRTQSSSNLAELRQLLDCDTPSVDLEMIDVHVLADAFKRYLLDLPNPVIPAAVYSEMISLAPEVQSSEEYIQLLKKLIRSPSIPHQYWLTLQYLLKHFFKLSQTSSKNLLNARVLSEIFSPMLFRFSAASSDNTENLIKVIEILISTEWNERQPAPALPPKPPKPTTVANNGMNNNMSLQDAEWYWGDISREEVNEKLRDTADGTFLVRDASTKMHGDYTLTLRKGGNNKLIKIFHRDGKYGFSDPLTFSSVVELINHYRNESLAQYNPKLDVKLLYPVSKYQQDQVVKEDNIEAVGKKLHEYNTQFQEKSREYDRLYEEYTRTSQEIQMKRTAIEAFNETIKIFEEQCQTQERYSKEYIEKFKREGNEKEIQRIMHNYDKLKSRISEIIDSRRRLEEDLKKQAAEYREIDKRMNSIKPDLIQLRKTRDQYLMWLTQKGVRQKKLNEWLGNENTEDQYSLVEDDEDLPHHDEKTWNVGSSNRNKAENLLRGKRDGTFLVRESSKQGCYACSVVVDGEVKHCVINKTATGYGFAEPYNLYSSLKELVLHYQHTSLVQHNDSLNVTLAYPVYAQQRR

SMILES | melting point | inhibition at 1 µM (P110 δ/Pi3K δ) | inhibition (P110 δ/Pi3K δ) | IC50 (P110 δ/Pi3K δ; [1]) | IC50 (P110 δ/Pi3K δ; read-out: P110 δ/Pi3K δ IC 50 nM)
CC(c1oc2ccccc2c(=O)c1-c1cccc(F)c1)n1nc(-c2cnc(N)nc2)c2c(N)ncnc21 (stereo not shown) [Example 93, 2-(1-(4-amino-3-(2-aminopyrimidin-5-yl)-1H-pyrazolo[3,4-d]pyrimidin-1-yl)ethyl)-3-(3-fluorophenyl)-4H-chromen-4-one] | 264 to 268 °C |  | 50 to 100% |  | 
CC(c1oc2ccc(F)cc2c(=O)c1-c1ccccc1)n1cnc2c(N)ncnc21 (stereo not shown) [Example 40, 2-(1-(6-Amino-9H-purin-9-yl)ethyl)-6-fluoro-3-phenyl-4H-chromen-4-one] | 264 to 269 °C | 50 to 100% |  |  | 
O=c1c(-c2ccccc2F)c(CNc2ncnc3[nH]cnc23)oc2ccccc12 [Example 45, 2-((9H-purin-6-ylamino)methyl)-3-(2-fluorophenyl)-4H-chromen-4-one] | 143 to 147 °C | < 50% |  |  | 
Cc1ccccc1-c1c(C(C)n2cnc3c(N)ncnc32)oc2ccccc2c1=O (stereo not shown) [Example 44, 2-(1-(6-Amino-9H-purin-9-yl)ethyl)-3-o-tolyl-4H-chromen-4-one] | 202 to 205 °C | 50 to 100% |  |  | 
CCC(c1oc2ccccc2c(=O)c1-c1cccc(F)c1)n1cnc2c(N)ncnc21 (stereo not shown) [Example 36, 2-(1-(6-amino-9H-purin-9-yl)propyl)-3-(3-fluorophenyl)-4H-chromen-4-one] | 102 to 107 °C | < 50% |  |  | 
COc1ccc2oc(Cn3cnc4c(N)ncnc43)c(-c3ccccc3)c(=O)c2c1 [Example 27, 2-((6-Amino-9H-purin-9-yl)methyl)-6-methoxy-3-phenyl-4H-chromen-4-one] | 197 to 198 °C | < 50% |  |  | 
O=c1c(-c2cccc(F)c2)c(CNc2ncnc3[nH]cnc23)oc2ccccc12 [Example 46, 2-((9H-purin-6-ylamino)methyl)-3-(3-fluorophenyl)-4H-chromen-4-one] | 211 to 214 °C | < 50% |  |  | 
CC(c1oc2ccc(Br)cc2c(=O)c1-c1ccccc1F)n1cnc2c(N)ncnc21 (stereo not shown) [Example 28, 2-(1-(6-Amino-9H-purin-9-yl)ethyl)-6-bromo-3-(2-fluorophenyl)-4H-chromen-4-one] | 256 to 258 °C | < 50% |  |  | 
O=c1c(-c2ccccc2)c(Cn2ccnc2)oc2ccccc12 [Example 12, 2-[(1H-Imidazol-1-yl)methyl]-3-phenyl-4H-chromen-4-one] | 168 to 171 °C | < 50% |  |  | 
CC(c1oc2ccccc2c(=O)c1-c1cccc(F)c1)n1nc(-c2ccc(Cl)c(O)c2)c2c(N)ncnc21 (stereo not shown) [Example 95a, 2-(1-(4-amino-3-(4-chloro-3-hydroxyphenyl)-1H-pyrazolo[3,4-d]pyrimidin-1-yl)ethyl)-3-(3-fluorophenyl)-4H-chromen-4-one] | 134 to 136 °C |  | 50 to 100% | < 250 nM | 
CCC(c1oc2ccccc2c(=O)c1-c1ccc(F)cc1)n1cnc2c(N)ncnc21 (stereo not shown) [Example 37, 2-(1-(6-Amino-9H-purin-9-yl)propyl)-3-(4-fluorophenyl)-4H-chromen-4-one] | 223 to 227 °C | < 50% |  |  | 
CC(c1oc2ccc(F)cc2c(=O)c1-c1cccc(F)c1)n1nc(-c2cccc(O)c2)c2c(N)ncnc21 (stereo not shown) [Example 121a, 2-(1-(4-amino-3-(3-hydroxyphenyl)-1H-pyrazolo[3,4-d]pyrimidin-1-yl)ethyl)-6-fluoro-3-(3-fluorophenyl)-4H-chromen-4-one] | 193 to 196 °C |  | 50 to 100% |  | 
COc1ccc2cc(-c3nn(C(C)c4oc5ccccc5c(=O)c4-c4cccc(F)c4)c4ncnc(N)c34)ccc2c1 (stereo not shown) [Example 172, 2-(1-(4-amino-3-(6-methoxynaphthalen-2-yl)-1H-pyrazolo[3,4-d]pyrimidin-1-yl)ethyl)-3-(3-fluorophenyl)-4H-chromen-4-one] | 285 to 287 °C |  | < 50% |  | 

Continued, values first:

melting point | inhibition at 1 µM (P110 δ/Pi3K δ) | inhibition (P110 δ/Pi3K δ) | IC50 (P110 δ/Pi3K δ; [1]) | IC50 (P110 δ/Pi3K δ; read-out: P110 δ/Pi3K δ IC 50 nM) | SMILES
140 to 143 °C | 50 to 100% |  |  |  | Nc1ncnc2c1c(-c1ccc3cn[nH]c3c1)nn2Cc1oc2ccccc2c(=O)c1-c1ccccc1 [Example 75, 2-((4-amino-3-(1H-indazol-6-yl)-1H-pyrazolo[3,4-d]pyrimidin-1-yl)methyl)-3-phenyl-4H-chromen-4-one]
226 to 227 °C | < 50% |  |  |  | CC(c1oc2ccccc2c(=O)c1-c1ccccc1)n1ncc2c(N)ncnc21 (stereo not shown) [Example 30, 2-(1-(4-Amino-1H-pyrazolo[3,4-d]pyrimidin-1-yl)ethyl)-3-phenyl-4H-chromen-4-one]
157 to 159 °C |  | < 50% |  |  | Nc1cccc(-c2nn(Cc3oc4ccccc4c(=O)c3-c3ccccc3)c3ncnc(N)c23)c1 [Example 91, 2-((4-amino-3-(3-aminophenyl)-1H-pyrazolo[3,4-d]pyrimidin-1-yl)methyl)-3-phenyl-4H-chromen-4-one]
173 to 175 °C | < 50% |  |  |  | Nc1ncnc2c1ncn2Cc1oc2ccccc2c(=O)c1-c1ccccc1 [Example 3, 2-[(6-Amino-9H-purin-9-yl)methyl]-3-phenyl-4H-chromen-4-one]
248 to 252 °C | < 50% |  |  |  | Nc1ncnc2c1c(-c1cccc3[nH]ncc13)nn2Cc1oc2ccccc2c(=O)c1-c1ccccc1 [Example 62, 2-((4-amino-3-(1H-indazol-4-yl)-1H-pyrazolo[3,4-d]pyrimidin-1-yl)methyl)-3-phenyl-4H-chromen-4-one]
206 to 208 °C |  | < 50% |  |  | CC(c1oc2ccccc2c(=O)c1-c1cccc(F)c1)n1nc(-c2ccc3cn[nH]c3c2)c2c(N)ncnc21 (stereo not shown) [Example 80, 2-(1-(4-amino-3-(1H-indazol-6-yl)-1H-pyrazolo[3,4-d]pyrimidin-1-yl)ethyl)-3-(3-fluorophenyl)-4H-chromen-4-one]
167 to 170 °C |  | < 50% |  |  | COCc1cccc(-c2nn(C(C)c3oc4ccccc4c(=O)c3-c3cccc(F)c3)c3ncnc(N)c23)c1 (stereo not shown) [Example 161, 2-(1-(4-amino-3-(3-(methoxymethyl)phenyl)-1H-pyrazolo[3,4-d]pyrimidin-1-yl)ethyl)-3-(3-fluorophenyl)-4H-chromen-4-one]
236 to 240 °C | < 50% |  |  |  | Nc1ncnc2c1cnn2Cc1oc2ccc(Br)cc2c(=O)c1-c1ccccc1 [Example 14, 2-((4-Amino-1H-pyrazolo[3,4-d]pyrimidin-1-yl)methyl)-6-bromo-3-phenyl-4H-chromen-4-one]
223 to 226 °C | 50 to 100% |  |  | < 250 nM | CC(c1oc2ccccc2c(=O)c1-c1cccc(F)c1)n1nc(-c2cn[nH]c2)c2c(N)ncnc21 (stereo not shown) [Example 72, 2-(1-(4-amino-3-(1H-pyrazol-4-yl)-1H-pyrazolo[3,4-d]pyrimidin-1-yl)ethyl)-3-(3-fluorophenyl)-4H-chromen-4-one]
277 to 279 °C |  | 50 to 100% | < 250 nM |  | Cc1n[nH]c2cc(-c3nn(Cc4oc5ccc(F)cc5c(=O)c4-c4ccccc4)c4ncnc(N)c34)ccc12 [Example 103, 2-((4-amino-3-(3-methyl-1H-indazol-6-yl)-1H-pyrazolo[3,4-d]pyrimidin-1-yl)methyl)-6-fluoro-3-phenyl-4H-chromen-4-one]
